The results in this text go back to ChEMBL document CHEMBL1138328, “Coumarin-based inhibitors of human NAD(P)H:quinone oxidoreductase-1. Identification, structure-activity, off-target effects and in vitro human pancreatic cancer toxicity” (J Med Chem, 2007).

Assay [1] concerns MIA PaCa-2. Put plainly: Growth inhibition of human MIA PaCa2 cells. In kind it is functional, cell-based.
The test system of assay [2] is MIA PaCa-2. Put plainly: Cytotoxicity against human MIA PaCa2 cells by MTT assay. Type of assay: functional, cell-based. (In general: Tetrazolium dyes change colour on reduction, which living cells bring about.)
In assay [3] the test system is MIA PaCa-2. Put plainly: Effect on respiration rate in human MIA PaCa2 cells assessed as oxygen consumption per 10^6 cells at 100 uM. Type of assay: functional.
In assay [4] the test system is MIA PaCa-2. Put plainly: Induction of superoxide formation in human MIA PaCa2 cells. Type of assay: functional, cell-based.
For assay [5], the target named is T1, NAD(P)H dehydrogenase [quinone] 1 (Homo sapiens, UniProt P15559).
Description: Inhibition of human recombinant NQO1
Assay [6] deals with T1, NAD(P)H dehydrogenase [quinone] 1. This is another data set of the same source.
Description: Inhibition of human recombinant NQO1 in presence of BSA

Molecules are shown by their SMILES. Calls of active or inactive are those of the source. The calls are words filed in the database; no cut-off is given here.

T1 sequence (P15559 whole entry): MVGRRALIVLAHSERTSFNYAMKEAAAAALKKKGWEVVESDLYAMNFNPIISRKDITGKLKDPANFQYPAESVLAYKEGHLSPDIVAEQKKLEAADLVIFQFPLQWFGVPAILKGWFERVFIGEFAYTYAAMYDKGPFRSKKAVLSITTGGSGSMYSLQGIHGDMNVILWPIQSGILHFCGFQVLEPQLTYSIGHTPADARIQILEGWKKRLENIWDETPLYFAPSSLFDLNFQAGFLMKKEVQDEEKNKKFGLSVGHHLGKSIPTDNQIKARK

What is called IC50 is the concentration at which inhibition is half-maximal. Regarding `O=c1oc2ccccc2c(O)c1Cc1c(O)c2ccccc2oc1=O` [DICUMAROL], the figures for the Activity result in the assay with MIA PaCa-2 [1] and in the assay with MIA PaCa-2 [3] were “Dose-dependent effect” and 7 nmol/min, respectively. In the assay on MIA PaCa-2 [2], this compound displayed an IC50 of 75 µM. Also, the result with MIA PaCa-2 [4] was Active.
For `O=c1c(Cc2c(O)oc3cc(O)ccc3c2=O)c(O)oc2cc(O)ccc12`, the IC50 in assay [5] stood at 0.005 µM; in assay [6], 0.35 µM; with MIA PaCa-2 [2], 190 µM. In addition, the Activity result was “Dose-dependent effect” with MIA PaCa-2 [1] and 2.6 nmol/min with MIA PaCa-2 [3].
As to `O=c1c(C(c2cnc3ccccc3c2)c2c(O)oc3ccccc3c2=O)c(O)oc2ccccc12`, the IC50 in assay [5] amounted to 0.38 µM; in assay [6] it was 18 µM.
For `O=c1c(C(c2ccc3ccccc3c2)c2c(O)oc3ccccc3c2=O)c(O)oc2ccccc12` the same measures were 0.14 µM and 8.5 µM.
On to `COc1ccc(C(c2c(O)c3ccccc3oc2=O)c2c(O)c3ccccc3oc2=O)cc1`, for which the IC50 amounted to 0.22 µM in assay [5] and 8.7 µM in assay [6].
On the same counts, the results for `COc1cc(C(c2c(O)c3ccccc3oc2=O)c2c(O)c3ccccc3oc2=O)ccc1O` are 0.65 µM and 10 µM.
Regarding `O=c1oc2ccccc2c(O)c1C1c2ccccc2Oc2c1c(=O)oc1ccccc21` (stereo unspecified), the Activity result was “Dose-dependent effect” in the assay on MIA PaCa-2 [1] and 2.5 nmol/min with MIA PaCa-2 [3]. This compound showed an IC50 in the assay on MIA PaCa-2 [2] of 150 µM.
Turning to `O=C1OC2C=CC=CC2=C2Oc3c(c(=O)oc4ccccc34)C(c3c(O)c4ccccc4oc3=O)C12` (stereo unspecified), the IC50 worked out at 0.25 µM in assay [5], 0.6 µM in assay [6] and 140 µM in the assay with MIA PaCa-2 [2]. Besides, the figures for the Activity result with MIA PaCa-2 [1] and with MIA PaCa-2 [3] were “Dose-dependent effect” and 2.5 nmol/min, respectively.
For `O=c1c(C(c2ccco2)c2c(O)oc3ccccc3c2=O)c(O)oc2ccccc12`, the values for the IC50 in assay [5] and in assay [6] were 1.3 µM and 5.9 µM, respectively.
`O=c1c(C(c2cccs2)c2c(O)oc3ccccc3c2=O)c(O)oc2ccccc12`: the IC50 in assay [5] amounted to 0.55 µM; in assay [6], 10 µM.
On the same counts, the results for `Nc1cc(=O)oc2ccccc12` are 3.25 µM and 13 µM.
